{"source": "patent US5677420A", "about": "“Phospholipase c-inhibiting peptides” (Kyowa Hakko Kogyo Co., Ltd., priority 1995, dated 1997)", "key": {"[1]": {"tested_on": "Klebsiella pneumoniae ATCC 10031", "test": "Antibacterial activity, agar dilution method", "type": "cell-based", "conditions": "medium pH 7.0", "description": "(§1) The antibacterial activity was determined by the agar dilution method using a medium (pH 7.0) which comprises 3 g/l Bacto-tryptone (Difco Laboratories), 1 g/l meat extract, 1 g/l glucose and 16 g/l agar."}, "[2]": {"tested_on": "Bacillus subtilis No. 10707", "test": "Antibacterial activity, agar dilution method", "type": "cell-based", "conditions": "medium pH 7.0", "description": "as §1"}, "[3]": {"tested_on": "KMS-4 cells", "test": "Cell growth-inhibiting activity (BrdU incorporation, cell growth detection kit)", "type": "cell-based", "conditions": "Concentration 1 μM, culturing with peptide for 17 hours", "experimental": "Cell growth-inhibiting activity The cell growth-inhibiting activity was determined using a cell growth detection kit (Amersham) in the following manner. KMS-4 cells [M. Nanba et al, International Journal of Cancer, 32, 697 (1983)]were suspended in DMEM medium (Nissui Pharmaceutical Co., Ltd.) containing 10% fetal calf serum at a density of 1-2×10^4 cells/ml, and 1 ml of the cell suspension was put into each well of a 24-well plate (Corning Inc.). The cells were cultured in a CO2 incubator (37° C., 5% CO2) for 2 days. Then, the medium was replaced with a fresh DMEM medium containing 10% fetal calf serum, and the test peptide was added thereto, followed by culturing for 17 hours. […] The number of cells which incorporated BrdU and the total number of cells within one field of vision of a microscope (approximately 200 cells) were determined, and the proportion (%) of stained cells per field of vision was calculated. […] The cell growth-inhibiting activity was calculated in the following manner. That is, the cell growth inhibition rate was calculated according to the following equation: X (%)=(1-B/A)×100 where A is the growth activity when no peptide was added, and B is the growth activity when the test peptide was added."}, "[4]": {"tested_on": "Proteus vulgaris ATCC 6897", "test": "Antibacterial activity, agar dilution method", "type": "cell-based", "conditions": "medium pH 7.0", "description": "as §1"}, "[5]": {"biological_target": "T1, PLC-γ1 (Bos taurus, UniProt P08487)", "T1 construct": "A sample of PLC-γ1 was prepared from bovine thymus according to the method described in Y. Honma et al; from tissue; host or cells: bovine thymus", "T1 sequence (P08487 1-1291)": "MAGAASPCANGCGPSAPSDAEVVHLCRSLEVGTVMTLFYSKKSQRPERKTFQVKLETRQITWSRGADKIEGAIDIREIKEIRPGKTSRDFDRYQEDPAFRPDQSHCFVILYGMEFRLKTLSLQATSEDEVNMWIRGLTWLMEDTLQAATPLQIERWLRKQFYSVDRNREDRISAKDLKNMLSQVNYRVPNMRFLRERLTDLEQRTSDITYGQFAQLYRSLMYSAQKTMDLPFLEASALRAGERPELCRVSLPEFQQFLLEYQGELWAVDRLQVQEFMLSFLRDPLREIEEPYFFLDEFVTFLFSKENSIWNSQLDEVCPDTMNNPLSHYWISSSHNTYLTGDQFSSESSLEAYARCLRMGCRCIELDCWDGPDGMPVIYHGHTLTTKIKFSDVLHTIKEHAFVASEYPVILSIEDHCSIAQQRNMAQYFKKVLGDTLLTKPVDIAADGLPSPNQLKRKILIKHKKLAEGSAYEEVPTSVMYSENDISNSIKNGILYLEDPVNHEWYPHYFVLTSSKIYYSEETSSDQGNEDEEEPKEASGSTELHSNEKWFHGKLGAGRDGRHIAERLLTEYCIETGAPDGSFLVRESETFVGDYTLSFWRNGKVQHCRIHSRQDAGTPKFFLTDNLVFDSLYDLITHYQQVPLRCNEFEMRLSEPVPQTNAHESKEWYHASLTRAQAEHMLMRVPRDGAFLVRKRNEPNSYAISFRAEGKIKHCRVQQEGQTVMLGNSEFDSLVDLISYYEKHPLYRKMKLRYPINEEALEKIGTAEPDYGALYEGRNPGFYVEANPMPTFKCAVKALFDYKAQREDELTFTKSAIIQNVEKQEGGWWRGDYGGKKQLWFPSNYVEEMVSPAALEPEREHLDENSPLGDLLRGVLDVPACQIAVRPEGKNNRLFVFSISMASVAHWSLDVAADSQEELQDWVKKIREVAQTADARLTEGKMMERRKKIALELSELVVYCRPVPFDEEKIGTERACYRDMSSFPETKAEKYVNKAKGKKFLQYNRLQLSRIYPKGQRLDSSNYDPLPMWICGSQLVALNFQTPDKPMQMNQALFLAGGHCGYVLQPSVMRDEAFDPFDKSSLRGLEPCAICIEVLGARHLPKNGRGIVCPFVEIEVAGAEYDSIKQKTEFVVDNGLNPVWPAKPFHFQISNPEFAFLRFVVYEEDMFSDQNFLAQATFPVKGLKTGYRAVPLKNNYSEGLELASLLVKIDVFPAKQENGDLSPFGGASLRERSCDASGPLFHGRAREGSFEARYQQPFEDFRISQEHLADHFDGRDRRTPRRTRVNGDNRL", "test": "PLC-inhibiting activity (release of inositol phosphate from [3H]PIP2)", "type": "biochemical", "conditions": "Concentration 123 μM; PLC-γ1 from bovine thymus, 37° C., 10 minutes", "experimental": "PLC-inhibiting activity A sample of PLC-γ1 was prepared from bovine thymus according to the method described in Y. Honma et al., Biochem. J., 269, 13 (1990). A solution having the composition shown in Table 2 below was prepared on ice and was heated to 37° C. to start reaction. After incubation for 10 minutes, 2 ml of a chloroform/methanol mixture (2:1, v/v) was added thereto to stop the reaction. The resulting inositol phosphate was extracted with 0.5 ml of 1N hydrochloric acid. The extract was separated into two liquid phases by centrifugation (2000×g, 3 minutes), and the amount of ^3 H contained in the supernatant (0.7 ml) was measured with a scintillation counter. […] (a) 2-(N-Morpholino)ethanesulfonic acid (b) The peptides and their concentrations in aqueous solutions provided for the test are shown in Table 3. […] The inhibition rate (X) was calculated according to the following equation: X (%)=(A-C)/(B-C)×100 where A is the obtained value of specific radioactivity, B is the value of specific radioactivity obtained when the same amount of water was added instead of the aqueous solution of the test peptide, and C is the value of specific radioactivity obtained when the same amount of water was added instead of the sample and the aqueous solution of the test peptide."}, "[6]": {"tested_on": "Pseudomonas aeruginosa Bin H No. 1", "test": "Antibacterial activity, agar dilution method", "type": "cell-based", "conditions": "medium pH 7.0", "description": "as §1"}}, "note": "Square brackets hold non-standard residues; d marks the D form. Peptide text beside a SMILES is read from it. Aun = NCCCCCCCCCCC(=O)O", "data": [{"compound": "CSCC[C@H](NC(=O)[C@H](CCCCN)NC(=O)[C@H](CCCNC(=N)N)NC(=O)[C@H](Cc1ccc(O)cc1)NC(=O)[C@H](CC(C)C)NC(C)=O)C(=O)N[C@@H](CCCNC(=N)N)C(=O)N[C@@H](CC(C)C)C(=O)N[C@@H](CCCNC(=N)N)C(=O)N[C@@H](Cc1ccc(O)cc1)C(=O)N1CCC[C@H]1C(=O)N[C@H](C(=O)NCCCCCCCCCCC(N)=O)C(C)C", "note": "[Compound (I-6), Ac-Leu-Tyr-Arg-Lys-Met-Arg-Leu-Arg-Tyr-Pro-Val-Aud-NH2] (Ac-LYRKMRLRYPV[Aun]-NH2)", "values": [{"measurement": "MIC (μg/ml) KP", "setting": "[1]", "value": 43, "unit": "µg/mL"}]}, {"compound": "Ac-Leu-Tyr-Arg-Lys-Met-Arg-Leu-Arg-Tyr-Pro-Val-Abu-NH2 (Ac-LYRKMRLRYPVX-NH2; not fully specified (residue 12); printed as $CH_3CO$—Leu—Tyr—Arg—Lys—Met—Arg—Leu—Arg—Tyr—Pro—Val—NH—$(CH_2)_3CONH_2$) [Compound (I-1)]", "values": [{"measurement": "MIC (μg/ml) BS", "setting": "[2]", "value": 167, "unit": "µg/mL"}, {"measurement": "Inhibition rate (%) (cell growth)", "setting": "[3]", "value": 10, "unit": "%"}, {"measurement": "MIC (μg/ml) PV", "setting": "[4]", "value": 83, "unit": "µg/mL"}, {"measurement": "Inhibition rate (%)", "setting": "[5]", "value": 85, "unit": "%"}, {"measurement": "MIC (μg/ml) PA", "setting": "[6]", "value": 167, "unit": "µg/mL"}]}]}
